Data reported in patent US20240307409A1, “ARGININE METHYLTRANSFERASE INHIBITOR AND USE THEREOF” (Cytosinlab Therapeutics Co., Ltd., priority 2021, published 2024).

Tests used:
PRMT1 = PRMT1 (Homo sapiens, UniProt Q99873); test: PRMT1 enzyme activity test; format: biochemical; conditions: 0.5 nM PRMT1, 3H-SAM, peptide
In short: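 Radiometric methylation assay: 0.5 nM PRMT1 preincubated 15 min at room temperature with compound (10-point 3-fold series, 1% DMSO) in pH 8.0 Tris buffer with Tween-20 and DTT. 0.25 uM ³H-SAM and 0.1 uM biotinylated peptide then reacted 120 min. Product captured on streptavidin FlashPlate and counted; IC50 from four-parameter fit of % inhibition.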

MMA in RKO cells = test: RKO In Cell Western assay (MMA primary antibody); format: cell-based; conditions: Homo sapiens, 72 hours, read-out: RKO ICW_EC30
Method: RKO was seeded at a concentration of 20,000 cells/ml into a polylysine-coated 96-well plate (Corning #3599), with 2,000 cells per well and 100 μL of culture mediumper well. 500 nL of compound was added to the 96-well plate. 3) The 96-well plate was incubated in a 37° C., 5% CO2 incubator for 72 hours. After three days, the 96-well plate was taken from the incubator, 100 μL of 8% paraformaldehyde solution was added to each well, and the plate was placed at room temperature for 15 min. After 15 min, the liquid in the plate was shaken out and the plate was washed three times with phosphate buffer (1*PBS). The liquid in the plate was shaken out and 200 μL of membrane-breaking buffer (0.1% (v/v) Tween-20 in PBS) was added and the plate was incubated on a shaker for 30 min. After half an hour, the liquid in the plate was shaken out, and blocking buffer was added and the plate was incubated for two hours at room temperature with shaking. After that, the liquid in the plate was shaken off, and the blocking solution containing primary antibody (MMA primary antibody, CST #8711S, 1:1000 v/v) was added to the 96-well plate and the plate was incubated at 4° C. overnight with shaking. The next day, the plate was washed three times with washing solution (0.05% (v/v) Tween-20 in PBS), and a blocking solution containing secondary antibody (goat anti-rabbit IgG (H+L) Invitrogen #31460, 1:10,000 v/v) was added and the plate was incubated for two hours at room temperature. Afterwards, the 96-well plate was washed four times with washing solution. The TMB mixture was added to the 96-well plate and then the plate was incubated for 15 minutes at room temperature with shaking. After that, the reaction terminating solution was added, and the value was read at OD450 nm using an microplate reader. The plate was washed three times with washing solution, and 50 μL of janusgreen staining solution was added, and the plate was incubated for 15 minutes at room temperature with shaking. The reaction was washed ten times with water until no color residue was left. 200 μL of 0.5 M hydrochloric acid solution was added to each well and the plate was incubated for 10 min at room temperature. The value was read at OD595 nm using Flexstation.
Firstly, the ratio OD450/OD595 was calculated for each well
Each plate had six DMSO negative control groups (ZPE) and six 10 μM positive control groups (HPE), and the average of the control group ratios was used to determine the percentage of activation for each test well. The compounds to be tested were triple diluted with DMSO for a total of 8 concentration points with a starting concentration of 5 μM. The equation for calculating the activation percentage of each test well was: […]

Toledo cells = test: Toledo cell proliferation inhibition assay; format: cell-based; conditions: Homo sapiens, Toledo, 144 h; six-day assay, CellTiter-Glo
In short: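 Toledo cells seeded at 2000 cells/well in RPMI 1640 + 10% FBS and incubated with compound for six days at 37° C, 5% CO2. Viability was then read by CellTiter-Glo luminescence after 30 min orbital mixing.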

Chain of PRMT1 (Q99873 whole entry): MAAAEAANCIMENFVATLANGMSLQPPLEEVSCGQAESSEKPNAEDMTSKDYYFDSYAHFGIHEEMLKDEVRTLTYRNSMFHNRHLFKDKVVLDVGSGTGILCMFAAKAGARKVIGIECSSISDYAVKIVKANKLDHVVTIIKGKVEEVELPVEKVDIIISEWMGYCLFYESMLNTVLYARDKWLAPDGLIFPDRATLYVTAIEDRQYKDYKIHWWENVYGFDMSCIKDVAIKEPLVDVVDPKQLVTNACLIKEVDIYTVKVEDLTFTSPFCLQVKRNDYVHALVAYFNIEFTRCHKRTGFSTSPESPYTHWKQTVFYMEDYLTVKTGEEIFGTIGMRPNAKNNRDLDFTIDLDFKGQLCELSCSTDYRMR

Structure (SMILES)	IC50 (PRMT1) [nM]	EC30 (MMA in RKO cells) [µM]	IC50 (Toledo cells) [nM]
CNCCN(C)Cc1nc(C)ccc1C1CCN(c2cccc(C)c2)CC1 [P080]	50 to 500	0.25 to 2.5	< 1000
CNCCN(C)Cc1cc(C(=O)NC)ccc1C1CCN(c2cccc(C)c2)CC1 [P159]	≥ 500	–	≥ 5000
CNCCN(C)Cc1ncccc1N1CCC(N2CCCC(C(=O)NC)C2)CC1 (centres unmarked) [P276]	≥ 500	–	≥ 5000
CNCCN(C)Cc1nc(C)ccc1C1CCc2cc(F)c(F)cc2CC1 [P036]	< 50	–	< 1000
CCOCC1(COCC)CCC(c2nc(N)ccc2CN(C)CCNC)CC1 [P293, N1-((6-amino-2-(4,4-bis(ethoxymethyl)cyclohexyl)pyridin-3-yl)methyl)-N1,N2-dimethyle thane-1,2-diamine]	50 to 500	–	< 1000
CNCCN(C)Cc1ncccc1C1CCN(c2ccccc2)CC1 [P108]	< 50	–	< 1000
CCOC[C@H]1CC[C@@H](c2cccnc2CN(C)CCNC)CC1 [P174]	< 50	–	1000 to 5000
CCC1(C(=O)O)CCN(c2cccnc2CN(C)CCNC)CC1 [P315]	≥ 500	–	≥ 5000
CNCCN(C)Cc1ccc2[nH]cnc2c1C1CCN(c2cccc(C)c2)CC1 [P189]	< 50	–	< 1000
CNCCN(C)Cc1ncccc1N1CCC(Nc2ccccc2)CC1 [P194]	< 50	–	1000 to 5000
CNCCN(C)Cc1ccc(F)cc1C1CCc2ccccc2CC1 [P011]	< 50	–	< 1000
CCOCC1(COCC)CCC(c2cc(F)cnc2CN(C)CCNC)CC1 [P196]	< 50	–	< 1000
CNCCN(C)Cc1ncccc1C1CCN(c2ccccc2C#N)CC1 [P201]	< 50	–	< 1000
CNCCN(C)Cc1nc(N)ccc1C1CCN(c2cccc(C)c2)CC1 [P227]	< 50	–	< 1000
CNCCN(C)Cc1ncccc1N1CCCc2ccccc21 [P128]	≥ 500	–	≥ 5000
CNCCN(C)Cc1ccccc1C1=CCN(C(C)C)CC1 [P028]	< 50	–	≥ 5000
CNCCN(C)Cc1ccc(C)nc1C1CCN(c2ccc(C#N)cc2)CC1 [P188]	< 50	–	1000 to 5000
CNCCN(C)Cc1ccc2nn(C)cc2c1C1CCc2cc(F)c(F)cc2CC1 [P104]	< 50	–	< 1000

Structure (SMILES)	IC50 (PRMT1) [nM]	EC30 (MMA in RKO cells) [µM]	IC50 (Toledo cells) [nM]
CNCCN(C)Cc1ncccc1N1CCC(Oc2ccccc2OC(F)(F)F)CC1 [P230]	< 50	–	< 1000
CNCCN(C)Cc1nc(C)ccc1N1CCc2ccccc2CC1 [P109]	< 50	–	< 1000
CCOCC1(COCC)CC=C(c2ccccc2CN(C)CCNC)CC1 [P117]	< 50	–	< 1000
CNCCN(C)Cc1ccccc1C1=CCC2(CCCCO2)CC1 (centres unmarked) [P055]	< 50	–	1000 to 5000
CCOCC1(COCC)CCN(c2cccnc2CN(C)CCNC)C1 [P248]	50 to 500	–	1000 to 5000
CNCCN(C)Cc1ncccc1C1CCN(c2cc(C)cc(CN(C)C)c2)CC1 [P082]	< 50	–	1000 to 5000
CNCCN(C)Cc1ccc(C)nc1C1CCN(c2cc(C)cc(C)c2)CC1 [P063]	< 50	–	< 1000
CNCCN(C)Cc1ncccc1C1CCN(c2nccc(C)n2)CC1 [P278]	< 50	–	1000 to 5000
CNCCN(C)Cc1ccc(C)nc1C1CCN(c2ccc(F)c(Cl)c2)CC1 [P064]	< 50	–	< 1000
CCOC(=O)C1(CC)CCN(c2cccnc2CN(C)CCNC)CC1 [P273]	< 50	–	1000 to 5000
CNCCN(C)Cc1ncccc1N1CCC(Oc2cccc(OC)c2)CC1 [P238]	< 50	–	< 1000
CNCCN(C)Cc1ccc(F)cc1C1CCCN(c2ccccc2)CC1 (centres unmarked) [P017]	< 50	–	1000 to 5000
CNCCN(C)Cc1ncc(N)nc1C1CCN(c2cccc(C)c2)CC1 [P292, N-((5-amino-3-(1-(m-tolyl)piperidin-4-yl)pyrazin-2-yl)methyl)-N,N′-dimethyl-1,2-ethyle nediamine]	< 50	–	< 1000
CNCCN(C)Cc1ccncc1C1CCN(c2cccc(C)c2)CC1 [P097]	< 50	–	1000 to 5000
CNCCN(C)Cc1ncccc1C1CCN(c2ccc(C)cc2)CC1 [P096]	< 50	–	1000 to 5000
CNCCN(C)Cc1cc(F)ccc1C1CCN(c2cccc(C)c2)CC1 [P020]	< 50	–	< 1000
CNCCN(C)Cc1ncccc1C1CCCCC1 [P125]	< 50	–	< 1000

Continued, in another order:

IC50 (PRMT1) [nM]	Structure (SMILES)	EC30 (MMA in RKO cells) [µM]	IC50 (Toledo cells) [nM]
< 50	CNCCN(C)Cc1cc(F)ccc1C1CCc2ccc(C(F)(F)F)cc2CC1 (centres unmarked) [P001]	0.25 to 2.5	< 1000
< 50	CNCCN(C)Cc1ncccc1C1CCN(c2cc(C)cc(F)c2)CC1 [P085]	< 0.25	< 1000
< 50	CNCCN(C)Cc1ncccc1N1CCC(COc2ccccc2)CC1 [P165]	0.25 to 2.5	< 1000
< 50	CNCCN(C)Cc1ncccc1N1CCc2ccc(OC)cc2CC1 [P186]	0.25 to 2.5	< 1000
< 50	CCOC[C@H]1CC[C@H](c2ccccc2CN(C)CCNC)CC1 [P049]	< 0.25	< 1000
< 50	CNCCN(C)Cc1ccccc1[C@H]1CC[C@@]2(CCCOC2)CC1 [P053]	0.25 to 2.5	< 1000
< 50	CCOCC1(COCC)CCN(c2ccccc2CN(C)CCNC)CC1 [P136]	0.25 to 2.5	< 1000
< 50	CNCCN(C)Cc1ncccc1N1CCc2ccccc2C(C)C1 (centres unmarked) [P112]	0.25 to 2.5	< 1000
< 50	CNCCN(C)Cc1ncccc1[C@H]1CC[C@@]2(CC1)COC(C)(C)C2 [P158]	< 0.25	< 1000
< 50	CNCCN(C)Cc1ncccc1N1CCC(Oc2ccc(C(F)(F)F)cc2)CC1 [P142]	0.25 to 2.5	< 1000
< 50	CNCCN(C)Cc1ncccc1C1CCN(c2cccc(C)c2)CC1 [P094]	< 0.25	< 1000
< 50	CCOCC1(COCC)CCC(c2ccccc2CN(C)CCNC)CC1 [P114]	< 0.25	< 1000
< 50	CNCCN(C)Cc1ncccc1N1CCC(COc2cccc(C(F)(F)F)c2)CC1 [P131]	0.25 to 2.5	< 1000
< 50	CNCCN(C)Cc1ncccc1N1CCc2ccc(C(F)(F)F)cc2CC1 [P088, N^1,N^2-dimethyl-N^1-((3-(7-(trifluoromethyl)-4,5-dihydro-1H-benzo[d]azepin-3(2H)-yl)pyridin-2-yl)methyl)ethane-1,2-diamine]	0.25 to 2.5	< 1000
< 50	CNCCN(C)Cc1ccccc1C1CCN(C(C)C)CC1 [P027]	–	1000 to 5000
< 50	CNCCN(C)Cc1ccc(C(C)N)cc1C1CCc2cc(F)c(F)cc2CC1 (centres unmarked) [P070]	–	< 1000
< 50	CNCCN(C)Cc1ncccc1C1CCN(c2ccc(OC)cc2)CC1 [P168]	–	1000 to 5000
< 50	CNCCN(C)Cc1ncccc1C1CCN(c2cnccn2)CC1 [P288]	–	1000 to 5000
< 50	CCOCC1(COCC)CCN(c2c(Br)cccc2CN(C)CCNC)CC1 [P123]	–	1000 to 5000
< 50	CNCCN(C)Cc1ccccc1C1=CCC(OC(C)C)CC1 (centres unmarked) [P060]	–	< 1000
